# Counter-ions that a name gives are not always drawn.
# Legend:
# M1 muscarinic receptor = target: T1, M1 muscarinic receptor (Homo sapiens, UniProt P11229); assay: Functional mobilization of intracellular calcium (FLIPR), M1-CHO cells; type: cell-based; details: for Emax: 100% efficacy is the maximum response obtained using Carbachol as a control; for M1 Activity: M1-CHO cells, FLIPR calcium mobilization
# T1 construct: expressed in transfected cells; host or cells: CHO (M1-CHO)
# T1 sequence (P11229 1-460): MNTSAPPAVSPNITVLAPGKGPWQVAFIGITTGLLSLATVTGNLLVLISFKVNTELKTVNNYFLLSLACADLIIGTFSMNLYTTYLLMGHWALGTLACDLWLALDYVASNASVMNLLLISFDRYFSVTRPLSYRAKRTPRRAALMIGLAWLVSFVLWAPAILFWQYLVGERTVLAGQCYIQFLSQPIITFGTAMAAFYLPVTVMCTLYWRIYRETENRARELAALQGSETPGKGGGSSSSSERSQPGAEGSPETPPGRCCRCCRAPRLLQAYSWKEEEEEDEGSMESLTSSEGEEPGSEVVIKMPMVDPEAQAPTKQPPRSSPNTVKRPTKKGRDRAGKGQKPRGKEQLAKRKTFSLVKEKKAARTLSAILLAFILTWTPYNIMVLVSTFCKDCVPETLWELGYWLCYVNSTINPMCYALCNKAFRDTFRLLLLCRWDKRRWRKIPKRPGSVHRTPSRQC
# Procedure, shortened: (§1)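 Calcium flux recorded 60 s (ex 488, em 540 nm) in dye-loaded M1- or M4-CHO cells in pH 7.4 buffer with 1 mM probenecid. Inhibition measured against carbachol EC80 after 15 min compound pre-incubation or co-addition; agonism measured by compound addition alone. Final DMSO 0.5%.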
# M4 muscarinic receptor = target: T2, M4 muscarinic receptor (Homo sapiens, UniProt P08173); assay: Functional mobilization of intracellular calcium (FLIPR), M4-CHO cells; type: cell-based; details: for Emax: 100% efficacy is the maximum response obtained using Carbachol as a control; for M4 Activity: M4-CHO cells, FLIPR calcium mobilization
# T2 construct: expressed in transfected cells; host or cells: CHO (M4-CHO)
# T2 sequence (P08173 1-479): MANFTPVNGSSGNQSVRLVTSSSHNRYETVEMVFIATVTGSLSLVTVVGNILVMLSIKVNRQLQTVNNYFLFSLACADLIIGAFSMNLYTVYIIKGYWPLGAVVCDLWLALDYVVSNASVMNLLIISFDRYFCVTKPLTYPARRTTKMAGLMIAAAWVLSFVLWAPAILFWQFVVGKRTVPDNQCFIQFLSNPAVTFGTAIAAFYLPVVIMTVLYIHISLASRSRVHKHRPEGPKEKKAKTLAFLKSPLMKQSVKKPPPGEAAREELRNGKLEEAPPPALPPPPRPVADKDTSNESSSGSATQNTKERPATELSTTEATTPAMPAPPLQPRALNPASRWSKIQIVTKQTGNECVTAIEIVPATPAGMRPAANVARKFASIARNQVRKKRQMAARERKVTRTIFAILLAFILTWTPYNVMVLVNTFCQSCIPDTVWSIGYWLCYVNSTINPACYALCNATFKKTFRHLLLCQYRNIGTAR
# Procedure, shortened: as §1
SMILES,Emax (M1 muscarinic receptor) [%],M1 Activity (M1 muscarinic receptor),Emax (M4 muscarinic receptor) [%],M4 Activity (M4 muscarinic receptor)
COc1ccc(CN2CCC3(CC2)CN(C(C)=O)Cc2ccccc23)cn1 [compound 37],25 to 100,+ (activity was measured to be greater than 5.0 μM),< 25,+ (activity was measured to be greater than 5.0 μM)
CCOC(=O)N1CCC(CN2CCC3(CC2)CN(C(=O)c2cnon2)Cc2ccccc23)CC1 [compound 329],25 to 100,+++ (activity was measured to be less than 1.0 μM),25 to 100,+++ (activity was measured to be less than 1.0 μM)
CCOC(=O)C1CCC(N2CCC3(CC2)CN(C(C)=O)Cc2ccccc23)CC1 (stereo not shown) [compound 68],25 to 100,+++ (activity was measured to be less than 1.0 μM),25 to 100,+++ (activity was measured to be less than 1.0 μM)
CCOC(=O)N1CCC(N2CCC3(CC2)CN(S(=O)(=O)c2ccc(F)cc2)Cc2ccccc23)CC1 [compound 337],25 to 100,+++ (activity was measured to be less than 1.0 μM),25 to 100,+++ (activity was measured to be less than 1.0 μM)
CCOC(=O)N1CCC(N2CCC3(CC2)CN(C(=O)Oc2ccc(F)cc2)Cc2ccccc23)CC1 [compound 342],25 to 100,+++ (activity was measured to be less than 1.0 μM),25 to 100,+++ (activity was measured to be less than 1.0 μM)
CC(=O)N1Cc2ccccc2C2(CCN(C3CCCCC3)CC2)C1 [compound 294],25 to 100,+++ (activity was measured to be less than 1.0 μM),25 to 100,+++ (activity was measured to be less than 1.0 μM)
CC(=O)N1Cc2ccccc2C2(CCN(C3C4CC5CC(C4)CC3C5)CC2)C1 (stereo not shown) [compound 170],25 to 100,+++ (activity was measured to be less than 1.0 μM),25 to 100,+++ (activity was measured to be less than 1.0 μM)
CCOC(=O)N1CCC(CN2CCC3(CC2)CN(S(C)(=O)=O)Cc2ccccc23)CC1 [compound 70],25 to 100,+++ (activity was measured to be less than 1.0 μM),25 to 100,+++ (activity was measured to be less than 1.0 μM)
O=C(OC1CCC1)N1Cc2ccccc2C2(CCN(C3CC4CCC(C3)N4C(=O)OC3CCC3)CC2)C1 (stereo not shown) [compound 194],25 to 100,+++ (activity was measured to be less than 1.0 μM),25 to 100,+++ (activity was measured to be less than 1.0 μM)
CCOC(=O)N1CCC(N2CCC3(CC2)CN(C(=O)C(C)C)Cc2ccccc23)CC1 [compound 279],25 to 100,+++ (activity was measured to be less than 1.0 μM),25 to 100,+++ (activity was measured to be less than 1.0 μM)
CCOC(=O)N1C2CCC(N3CCC4(CC3)CN(C(=O)OC3CCC3)Cc3ccccc34)CC1CC2 (stereo not shown) [compound 112],25 to 100,+++ (activity was measured to be less than 1.0 μM),25 to 100,+++ (activity was measured to be less than 1.0 μM)
CC(=O)N1Cc2ccccc2C2(CCN(CC3CCN(C(=O)OC4CCC4)CC3)CC2)C1 [compound 291],< 25,+ (activity was measured to be greater than 5.0 μM),< 25,+ (activity was measured to be greater than 5.0 μM)
CCOC(=O)N1C2CCC1CC(N1CCC3(CC1)CN(C(=O)NC1CCCCC1)Cc1ccccc13)C2 (stereo not shown) [compound 358],25 to 100,+++ (activity was measured to be less than 1.0 μM),25 to 100,+++ (activity was measured to be less than 1.0 μM)
CCOC(=O)N1CCC(N2CCC3(CC2)CN(C(=O)OC2CCC2)Cc2ccccc23)CC1 [compound 202],25 to 100,+++ (activity was measured to be less than 1.0 μM),25 to 100,+++ (activity was measured to be less than 1.0 μM)
COC(=O)c1ccc(CN2CCC3(CC2)CN(C(C)=O)Cc2ccccc23)cc1 [compound 276],25 to 100,++ (activity was measured to be from 1.0 μM to 5.0 μM),25 to 100,++ (activity was measured to be from 1.0 μM to 5.0 μM)
CCCOC(=O)N1CC(CN2CCC3(CC2)CN(C(C)=O)Cc2ccccc23)C1 [compound 287],< 25,+ (activity was measured to be greater than 5.0 μM),< 25,+ (activity was measured to be greater than 5.0 μM)
CCOC(=O)N1CCC(N2CCC3(CC2)CN(C(=O)Nc2c(C)noc2C)Cc2ccccc23)CC1 [compound 84],25 to 100,+++ (activity was measured to be less than 1.0 μM),< 25,+++ (activity was measured to be less than 1.0 μM)
CCOC(=O)N1CCC(N2CCC3(CC2)CN(C(=O)c2ccccn2)Cc2ccccc23)CC1 [compound 151],25 to 100,+++ (activity was measured to be less than 1.0 μM),25 to 100,+++ (activity was measured to be less than 1.0 μM)
CCOC(=O)N1C2CCC1CC(N1CCC3(CC1)CN(C(=O)C(O)(CC)CC)Cc1ccccc13)C2 (stereo not shown) [compound 190],25 to 100,+++ (activity was measured to be less than 1.0 μM),25 to 100,+++ (activity was measured to be less than 1.0 μM)
CC(=O)N1Cc2ccccc2C2(CCN(CC3CCOCC3)CC2)C1 [compound 182],< 25,+ (activity was measured to be greater than 5.0 μM),< 25,+ (activity was measured to be greater than 5.0 μM)
CCOC(=O)N1CCC(CN2CCC3(CC2)CN(C(=O)OCC)Cc2ccccc23)CC1 [compound 11],25 to 100,+++ (activity was measured to be less than 1.0 μM),25 to 100,+++ (activity was measured to be less than 1.0 μM)
CC(=O)N1Cc2ccccc2C2(CCN(CC3CCN(C(=O)O[C@H]4CCOC4)CC3)CC2)C1 [compound 243],< 25,+ (activity was measured to be greater than 5.0 μM),< 25,+ (activity was measured to be greater than 5.0 μM)
CC(C)(C)CCN1CCC2(CC1)c1ccccc1C(=O)N2Cc1ccccc1 [compound 130],25 to 100,++ (activity was measured to be from 1.0 μM to 5.0 μM),< 25,+ (activity was measured to be greater than 5.0 μM)
CCOC(=O)N1C2CCC1CC(N1CCC3(CC1)CN(C(=O)NC(C)C)Cc1ccccc13)C2 (stereo not shown) [compound 350],25 to 100,+++ (activity was measured to be less than 1.0 μM),25 to 100,+++ (activity was measured to be less than 1.0 μM)
CC(=O)N1Cc2ccccc2C2(CCN(C3CCOCC3)CC2)C1 [compound 215],25 to 100,++ (activity was measured to be from 1.0 μM to 5.0 μM),25 to 100,+ (activity was measured to be greater than 5.0 μM)
"CCOC(=O)N1CCC(CN2CCC3(CC2)CN(C(=O)c2ccccc2)Cc2ccccc23)CC1 [compound 147, Ethyl 4-((2-benzoyl-2,3-dihydro-1H-spiro[isoquinoline-4,4′-piperidine]-1′-yl)methyl)piperidine-1-carboxylate hydrochloride]",25 to 100,+++ (activity was measured to be less than 1.0 μM),25 to 100,+++ (activity was measured to be less than 1.0 μM)
CCOC(=O)N1C2CCC1CC(N1CCC3(CC1)CN(C(=O)OC1CCC1)Cc1ccccc13)C2 (stereo not shown) [compound 27],25 to 100,+++ (activity was measured to be less than 1.0 μM),25 to 100,+++ (activity was measured to be less than 1.0 μM)
CS(=O)(=O)N1Cc2ccccc2C2(CCN(C3CC4CCC(C3)N4C(=O)O[C@H]3CCOC3)CC2)C1 (stereo partly shown) [compound 181],25 to 100,+++ (activity was measured to be less than 1.0 μM),25 to 100,+++ (activity was measured to be less than 1.0 μM)
